According to patent publication US20130109714A1, “NEURODEGENERATIVE DISEASE THERAPEUTIC AGENT” (National University Corporation Hokkaido University, priority 2010, published 2013):

Experiments:
[1] = system: mouse injected with 6-OHDA to the unilateral (left) midbrain; assay: 6-OHDA Parkinson's disease model, methamphetamine-induced rotational behavior; type: in vivo; conditions: administered together with methamphetamine, up to 7 days after administration
Experimental: To evaluate effects of a DJ-1 bound compound on Parkinson's disease in vivo, 6-OHDA was stereotactically injected to the unilateral (left) midbrain of a mouse. Then, the DJ-1 bound compound (No. 23) was administered together with methamphetamine. Here, administration of methamphetamine to an animal induces ipsilateral movement relative to the injection site. Accordingly, by the administration of methamphetamine to a mouse, a rotational behavior is observed.

[2] = system: primary nerve cells of the rat ventral midbrain; assay: H2O2-induced cell death in primary nerve cells, MTT assay; type: cell-based; conditions: 1 μM compound for 20 h, then 200 μM H2O2 for 3 h
Experimental: From germinal cells of a rat at 17-19 days pregnant, primary nerve cells of the rat ventral midbrain were prepared. To evaluate presence of dopamine-producing neurons in a cell culture, the cell culture was immunostained with anti-NeuN antibody and anti-TH antibody to identify each of whole neurons and dopamine-producing neurons, and cell nuclei were stained with DAPI.
Therefore, it was clarified that No. 23 provides a resistance against nerve cell death induced by oxidative stress.

[3] = system: cerebral stroke model rat; conditions: in vivo

COc1cc(C(=O)Nc2ccc(-c3cn4cccc(C)c4n3)cc2)cc(OC)c1OC [No. 23]
rotational behavior, number of rotations (FIGS. 15 and 16) [1]: significantly suppressed
cell death caused by hydrogen peroxide in primary nerve cells (FIG. 12) [2]: no cell death was observed
cell death in brain, TTC staining, infarct area and volume (FIGS. 4-7) [3]: significantly suppresses cell death
